{"source": "patent US4738929A", "about": "“Purified culture of streptomyces galanosa” (Warner-Lambert Company, priority 1986, dated 1988)", "key": {"[1]": {"system": "Escherichia coli (PD-04863)", "assay": "Microtiter dilution MIC, Escherichia coli (PD-04863)", "type": "cell-based", "details": "Mueller-Hinton broth, 37° C., 16-24 hours, read-out: Minimal Inhibitory Concentration", "procedure": "(§1) The compounds of the present invention and their pharmaceutically acceptable salts are useful as antimicrobial agents. The antimicrobial activity of the representative examples of compounds in accordance with the present invention against five species of gram-negative bacteria, seven species of gram-positive bacteria, four species of yeast, and two species of fungi were determined using the microtiter dilution technique. This method is described by T. B. Conrath, \"Handbook of Microtiter Procedures,\" Dynatech Corp., Cambridge, Mass., USA (1972); and T. L. Gavan et al, \"Microdilution Test Procedures,\" in Manual of Clinical Microbiology, E. H. Lennette, Ed., American Soc. for Microbiol., Washington, D.C., U.S.A. (1980).\n(§2) Each agent is suspended in a nonaqueous solvent for several minutes to sterilize the compound or, if the compound is completely soluble in water, the aqueous solution is sterilized by passage through a 0.2-0.45 micrometer membrane filter.\n(§3) Each well of a sterile 96-well microdilution tray is filled under aseptic conditions with 0.1 ml of Mueller-Hinton broth (for antibacterial tests), or yeast extract-peptone-dextrose or buffered supplemented yeast nitrogen base (for tests with yeasts or fungi).\n(§4) […] of the test compound solution is added to each of the eight wells in the first row of the tray. A microdilutor apparatus is used to simultaneously mix the contents of these wells and to transfer aliquots to each succeeding row of cells to obtain a range of serially diluted solutions. The last row of wells is untreated and serves as a control.\n(§5) Each well containing broth and test compound is inoculated with about ten microliters of inoculum of the test microorganism. One well in the last row of wells (which is free of test compound) is not inoculated and is used as a sterility control The trays are sealed and incubated at 37° C. for 16-24 hours (for bacteria) or at 28° C. for 36-48 hours (yeasts or fungi). During incubation, the inoculated medium is shaken at 100-140 rpm to increase contact between the microorganism cells and test compounds.\n(§6) After the incubation period, each plate is evaluated by determining the lowest concentration of test compound required to inhibit the growth of the microorganism and recorded as a minimal inhibitory concentration (MIC)."}, "Salmonella typhimurium": {"system": "Salmonella typhimurium", "assay": "Microtiter dilution MIC, Salmonella typhimurium", "type": "cell-based", "details": "Salmonella enterica, Mueller-Hinton broth, 37° C., 16-24 hours, read-out: Minimal Inhibitory Concentration", "procedure": "as §1, §2, §3, §4, §5, §6"}, "Alcaligenes viscolactis": {"system": "Alcaligenes viscolactis", "assay": "Microtiter dilution MIC, Alcaligenes viscolactis", "type": "cell-based", "details": "Mueller-Hinton broth, 37° C., 16-24 hours, read-out: Minimal Inhibitory Concentration", "procedure": "as §1, §2, §3, §4, §5, §6"}, "Branhamella catarrhalis": {"system": "Branhamella catarrhalis", "assay": "Microtiter dilution MIC, Branhamella catarrhalis", "type": "cell-based", "details": "Moraxella catarrhalis; Mueller-Hinton broth, 37° C., 16-24 hours; read-out: Minimal Inhibitory Concentration", "procedure": "as §1, §2, §3, §4, §5, §6"}, "Pseudomonas aeruginosa": {"system": "Pseudomonas aeruginosa", "assay": "Microtiter dilution MIC, Pseudomonas aeruginosa", "type": "cell-based", "details": "Mueller-Hinton broth, 37° C., 16-24 hours, read-out: Minimal Inhibitory Concentration", "procedure": "as §1, §2, §3, §4, §5, §6"}, "Micrococcus luteus": {"system": "Micrococcus luteus", "assay": "Microtiter dilution MIC, Micrococcus luteus", "type": "cell-based", "details": "Mueller-Hinton broth, 37° C., 16-24 hours, read-out: Minimal Inhibitory Concentration", "procedure": "as §1, §2, §3, §4, §5, §6"}, "Staphylococcus aureus": {"system": "Staphylococcus aureus", "assay": "Microtiter dilution MIC, Staphylococcus aureus", "type": "cell-based", "details": "Mueller-Hinton broth, 37° C., 16-24 hours, read-out: Minimal Inhibitory Concentration", "procedure": "as §1, §2, §3, §4, §5, §6"}, "Streptococcus pyogenes": {"system": "Streptococcus pyogenes", "assay": "Microtiter dilution MIC, Streptococcus pyogenes", "type": "cell-based", "details": "Mueller-Hinton broth, 37° C., 16-24 hours, read-out: Minimal Inhibitory Concentration", "procedure": "as §1, §2, §3, §4, §5, §6"}, "Streptococcus pneumoniae": {"system": "Streptococcus pneumoniae", "assay": "Microtiter dilution MIC, Streptococcus pneumoniae", "type": "cell-based", "details": "Mueller-Hinton broth, 37° C., 16-24 hours, read-out: Minimal Inhibitory Concentration", "procedure": "as §1, §2, §3, §4, §5, §6"}, "Streptococcus faecalis": {"system": "Streptococcus faecalis", "assay": "Microtiter dilution MIC, Streptococcus faecalis", "type": "cell-based", "details": "Enterococcus faecalis; Mueller-Hinton broth, 37° C., 16-24 hours; read-out: Minimal Inhibitory Concentration", "procedure": "as §1, §2, §3, §4, §5, §6"}, "Bacillus cereus": {"system": "Bacillus cereus", "assay": "Microtiter dilution MIC, Bacillus cereus", "type": "cell-based", "details": "Mueller-Hinton broth, 37° C., 16-24 hours, read-out: Minimal Inhibitory Concentration", "procedure": "as §1, §2, §3, §4, §5, §6"}, "Bacillus megaterium": {"system": "Bacillus megaterium", "assay": "Microtiter dilution MIC, Bacillus megaterium", "type": "cell-based", "details": "Priestia megaterium; Mueller-Hinton broth, 37° C., 16-24 hours; read-out: Minimal Inhibitory Concentration", "procedure": "as §1, §2, §3, §4, §5, §6"}, "Saccharomyces cerevisiae": {"system": "Saccharomyces cerevisiae", "assay": "Microtiter dilution MIC, Saccharomyces cerevisiae", "type": "cell-based", "details": "yeasts or fungi, 28° C., 36-48 hours, read-out: Minimal Inhibitory Concentration", "procedure": "as §1, §2, §3, §4, §5, §6"}, "[2]": {"system": "Schizosaccharomyces pombe", "assay": "Microtiter dilution MIC, Schizosaccharomyces pombe", "type": "cell-based", "details": "yeasts or fungi, 28° C., 36-48 hours, read-out: Minimal Inhibitory Concentration", "procedure": "as §1, §2, §3, §4, §5, §6"}, "Rhodotorula aurantiaca": {"system": "Rhodotorula aurantiaca", "assay": "Microtiter dilution MIC, Rhodotorula aurantiaca", "type": "cell-based", "details": "Buckleyzyma aurantiaca; yeasts or fungi, 28° C., 36-48 hours; read-out: Minimal Inhibitory Concentration", "procedure": "as §1, §2, §3, §4, §5, §6"}, "Torulopsis albida": {"system": "Torulopsis albida", "assay": "Microtiter dilution MIC, Torulopsis albida", "type": "cell-based", "details": "Naganishia albida; yeasts or fungi, 28° C., 36-48 hours; read-out: Minimal Inhibitory Concentration", "procedure": "as §1, §2, §3, §4, §5, §6"}, "Mucor paraciticus": {"system": "Mucor paraciticus", "assay": "Microtiter dilution MIC, Mucor paraciticus", "type": "cell-based", "details": "yeasts or fungi, 28° C., 36-48 hours, read-out: Minimal Inhibitory Concentration", "procedure": "as §1, §2, §3, §4, §5, §6"}, "Rhizopus japonicus": {"system": "Rhizopus japonicus", "assay": "Microtiter dilution MIC, Rhizopus japonicus", "type": "cell-based", "details": "yeasts or fungi, 28° C., 36-48 hours, read-out: Minimal Inhibitory Concentration", "procedure": "as §1, §2, §3, §4, §5, §6"}, "[3]": {"system": "L1210 murine leukemia cell line", "assay": "Cytotoxic activity against L1210 murine leukemia in vitro", "type": "cell-based", "details": "Mus musculus, 50% inhibition of growth, duplicate tests", "procedure": "The antineoplastic activities of representative compounds of the present invention against the L1210 murine leukemia cell line in vitro were determined using the methods detailed by R. I. Geran et al, \"Protocols for Screening Chemical Agents and Natural Products Against Animal Tumors and Other Biological Systems,\" 3rd Edition, Cancer Chemotherapy Reports, Part 3, Vol. 3, pages 1-87 (1972) which is incorporated herein by reference.\nThe IC50 values are the concentration of compound required to produce 50% inhibition of growth of the cell line."}, "P388 leukemia cell line": {"system": "P388 leukemia cell line", "assay": "In vivo antineoplastic activity against transplanted P388 leukemia in mice", "details": "Days 1-9", "procedure": "The in vivo antineoplastic activity of representative compounds of the present invention against the transplanted P388 leukemia cell line in mice was determined in accordance with the protocol given in Geran et al, cited above. The mice were infected intraperitoneally on Day 0 and then administered the indicated doses of the test compounds on Days 1-9."}}}
{"smiles": "Cc1c(O)c(C=O)c2nc3c(O)ccc(C(=O)NCCCN(C)C)c3nc2c1O", "note": "[Example 18, N-[3-(dimethylamino)propyl]-6-formyl-4,7,9-trihydroxy-8-methyl-1-phenazinecarboxamide]", "values": [{"measurement": "MIC", "setting": "[1]", "result": 37, "unit": "µg/mL"}, {"measurement": "MIC", "setting": "Salmonella typhimurium", "result": 111, "unit": "µg/mL"}, {"measurement": "MIC", "setting": "Alcaligenes viscolactis", "result": 12.3, "unit": "µg/mL"}, {"measurement": "MIC", "setting": "Branhamella catarrhalis", "result": 12.3, "unit": "µg/mL"}, {"measurement": "MIC", "setting": "Pseudomonas aeruginosa", "result": "> 1000", "unit": "µg/mL"}, {"measurement": "MIC", "setting": "Micrococcus luteus", "result": 12.3, "unit": "µg/mL"}, {"measurement": "MIC", "setting": "Staphylococcus aureus", "result": 37, "unit": "µg/mL"}, {"measurement": "MIC", "setting": "Streptococcus pyogenes", "result": 37, "unit": "µg/mL"}, {"measurement": "MIC", "setting": "Streptococcus pneumoniae", "result": 37, "unit": "µg/mL"}, {"measurement": "MIC", "setting": "Streptococcus faecalis", "result": 37, "unit": "µg/mL"}, {"measurement": "MIC", "setting": "Bacillus cereus", "result": 12.3, "unit": "µg/mL"}, {"measurement": "MIC", "setting": "Bacillus megaterium", "result": 37, "unit": "µg/mL"}, {"measurement": "MIC", "setting": "Saccharomyces cerevisiae", "result": 111, "unit": "µg/mL"}, {"measurement": "MIC", "setting": "[2]", "result": 37, "unit": "µg/mL"}, {"measurement": "MIC", "setting": "Rhodotorula aurantiaca", "result": 37, "unit": "µg/mL"}, {"measurement": "MIC", "setting": "Torulopsis albida", "result": 37, "unit": "µg/mL"}, {"measurement": "MIC", "setting": "Mucor paraciticus", "result": 37, "unit": "µg/mL"}, {"measurement": "MIC", "setting": "Rhizopus japonicus", "result": 37, "unit": "µg/mL"}, {"measurement": "IC50", "setting": "[3]", "result": 0.24, "unit": "µg/mL"}, {"measurement": "% T/C", "setting": "P388 leukemia cell line; 25 mg/kg/injection", "result": 106, "unit": "%"}, {"measurement": "% T/C", "setting": "P388 leukemia cell line; 50 mg/kg/injection", "result": 123, "unit": "%"}, {"measurement": "% T/C", "setting": "P388 leukemia cell line; 100 mg/kg/injection", "result": 132, "unit": "%"}]}
